Data published in patent US8481530B2, “3β-hydroxysteroid dehydrogenase inhibitors” (The Research Foundation of State University of New York, priority 2007, dated 2013).

What follows are compounds tested against M. tuberculosis 3β-hydroxysteroid dehydrogenase (Mycobacterium tuberculosis, UniProt P9WQP7) (assay: 3β-hydroxysteroid dehydrogenase in vitro inhibitory activity assay). Details: not given.
Format: biochemical

Chain of M. tuberculosis 3β-hydroxysteroid dehydrogenase (P9WQP7 whole entry, looked up): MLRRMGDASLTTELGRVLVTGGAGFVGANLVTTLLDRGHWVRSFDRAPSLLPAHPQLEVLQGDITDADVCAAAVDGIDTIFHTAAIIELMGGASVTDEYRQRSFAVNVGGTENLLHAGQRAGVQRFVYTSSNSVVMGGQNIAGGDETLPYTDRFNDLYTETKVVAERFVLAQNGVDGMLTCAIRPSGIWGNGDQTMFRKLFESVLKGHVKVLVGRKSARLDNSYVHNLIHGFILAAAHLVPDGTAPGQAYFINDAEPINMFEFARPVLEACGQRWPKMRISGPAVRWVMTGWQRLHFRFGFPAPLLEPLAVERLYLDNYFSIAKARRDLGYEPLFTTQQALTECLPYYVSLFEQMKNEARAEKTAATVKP

**Q.** How did the IC50 turn out when `CC(C)CCCC(C)[C@H]1CCC2C3CNC4=CC(=O)CC[C@]4(C)C3CC[C@@]21C` (stereo partly shown) was run?
**A.** < 1 µM

**Q.** For `C[C@]12CCC(=O)C=C1NCC1C2CC[C@@]2(C)C1CC[C@@H]2C(=O)Nc1ccc(N2CCOCC2)cc1` (stereo partly shown), which IC50 is on record?
**A.** > 50 µM

**Q.** How did the IC50 turn out when `CC(C)(C)c1ccc(C(F)(F)F)cc1NC(=O)[C@H]1CCC2C3CNC4=CC(=O)CC[C@]4(C)C3CC[C@@]21C` (stereo partly shown) was run?
**A.** 1 to 50 µM

**Q.** How did the IC50 turn out when `CC(C)(C)c1ccc(C(C)(C)C)c(NC(=O)[C@H]2CCC3C4CNC5=CC(=O)CC[C@]5(C)C4CC[C@@]32C)c1` (stereo partly shown) was run?
**A.** 1 to 50 µM

Same assay, conditions: purified enzyme, 150 μM dehydroepiandrosterone, 3.5 mM NAD+, pH 8.5, NADH at 340 nm; read-out: IC50 M. tuberculosis 3β-hydroxysteroid dehydrogenase

**Q.** `C[C@]12CCC(=O)C=C1NCC1C2CC[C@@]2(C)C1CC[C@@H]2C(=O)O` (stereo partly shown) was tested. Which IC50 did it give?
**A.** > 50 µM

**Q.** How did the IC50 turn out when `C[C@]12CCC(=O)C=C1NCC1C2CC[C@@]2(C)C1CC[C@@H]2C(=O)Nc1ccccc1C(=O)c1ccccc1` (stereo partly shown) was run?
**A.** 1 to 50 µM

**Q.** For `CC(C)CCCC(C)[C@H]1CCC2C3C(CC[C@@]21C)[C@@]1(C)CCC(=O)C=C1N[C@H]3C` (stereo partly shown), which IC50 is on record?
**A.** 1 to 50 µM
